The results in this text go back to US11213597B2, “Kinin-based theranostic probes for solid cancers and uses thereof” (SOCIETE DE COMMERCIALISATION DES PRODUITS DE LA RECHERCHE …, priority 2015, dated 2022).

Series [1] relates to F98 GBM. Put plainly: small animal PET imaging, Fischer/F98 malignant glioma model. As to conditions: intravenous, F98 GBM-bearing rats. The series is classed as in vivo, rat. As to the method: The F98 GBM cell line (#CRL-2397) was purchased from American Type Culture Collection (ATCC). Cells were cultured as monolayers in Dulbecco's modified Eagle medium (DMEM) supplemented with 10% fetal bovine serum (FBS) and 1% penicillin-streptomycin mixture at 37° C. in a humidified 5% CO2/95% air incubator. The procedure of F98 glioma cell implantation was similar to that used in our previous studies (Côté et al., 2010, Neuropeptides, 44:177-185). […] All tumor transplantations were successful as determined by histology and/or MRI.
PET scans were performed using a LabPET8 (Gamma Medica Inc.) small animal scanner with an axial field of view of 8 cm. […] PET scans were assessed 1 h and 20 h post-injections. […] Regions of interest were traced for tumor, normal brain, heart, liver, kidney, and muscle, and the activity in each organ was measured and reported to the injected dose for percentages calculation. […] In vivo testing of the novel kinin PET radiotracers was also assessed in a model of tumor metastasis induced by the intracardiac injection of 4T1/luc (bioluminescent) mouse breast cancer cells under ultrasound guidance.

Another series has as its system cancer cells. Put plainly: cytotoxicity of B1R radionuclide therapy by clonogenic assays. The class given is cell-based. As to conditions: non-radioactive surrogate up to 10 μM. The procedure:
Cytotoxicity of B1R radionuclide therapy was assessed in cancer cells by clonogenic assays. […] Then, media were removed and colonies fixed/stained with 0.5% methylene blue in 50% ethanol, rinsed with tap water and air dried. Colony counting was performed manually or automatically using the Image Pro Plus 5.1.

The conditions of series [2]: rat. As to the method: For in vivo stability studies in normal healthy rats and mice, peptide was reconstituted in PBS and 20-30 MBq (500-800 μCi; 100 μL) were injected through the tail vein to isoflurane anesthetized animals. At different times post-injection, blood and urine were collected, centrifuged and followed by a protein precipitation with acetonitrile. Samples were analyzed by UPLC using a C-18 column and a radio-detector. Analysis and retention times were compared to the original radiolabeled peptide to monitor peptide cleavage.

Series [3] has as its system brain tumor cells and other types of cancer cells (e.g., breast and prostate). The series is described as follows: cellular and nuclear uptake of Cu (ICP-MS / radiometric assays). The series is classed as cell-based. As to the method: Cellular uptake profiles of non-radioactive Cu-acetate and Cu-labeled peptides in B1R expressing rat F98 GBM cells were evaluated by ICP-MS analysis. Brain cancer cells were allowed to grow to confluence on a 10-cm dish. Cells were then incubated with Cu-acetate or Cu-labeled peptides (500 nM) in FBS free-DMEM at 37° C. for 15 min or 1, 4, or 20 h, respectively. For determination of nonspecific internalization, one set of dishes was incubated with the potent B1R antagonist R-954 (1 μM) at 37° C. for 10 min to block B1R prior to incubation with Cu-labeled peptides. At each time point, media was collected, and cells were acid-washed once (50 mM acetic acid/250 mM NaCl pH 2.5), to remove surface-bound fractions, and then washed twice with Phosphate-buffered saline (PBS, pH 7.4). Thereafter, cells were trypsinized, collected by centrifugation and gently washed with Hank's buffered salt solution (HBSS). Cells were solubilized in 1/1 nitric acid/30% H2O2 solution, and the amount of Cu was determined by ICP-MS. […]
Irradiating DNA is an effective way to injure and eventually kill cells. […] Pelleted cell-free nuclei were resuspended in 0.5 ml of hypotonic buffer, counted and finally solubilized in 1/1 nitric acid/30% H2O2 solution. […] Quantification of Cu content in the nuclear fractions was done by ICP-MS.

Series [4] concerns F98 GBM. The series is described as follows: peptide receptor radionuclide therapy (PRRT), survival of F98 GBM-bearing rats. As to conditions: single intravenous treatment 7.5 mCi/rat, day 10 post-inoculation. The class given is in vivo.
Series [5] deals with F98 GBM. The series is described as follows: ex vivo biodistribution in F98 GBM-bearing rats. Also noted: species or system rat. As to the method:
Ex vivo biodistribution studies were performed by injecting 74 MBq (2 mCi/rat; 100 μL of ^64Cu-NOTA-βAla-Orn^1-Arg^2-Oic^3-Pro^4-Gly^5-(αMe)Phe^6-Ser^7-DβNal^8-Ile^9-OH (SEQ ID NO: 6) to isoflurane-anesthetized normal (non-implanted) or F98 bearing rats via the caudal vein. After 1 and 20 h post-injection, the animals were euthanized by CO2 inhalation. Organs of interest were further collected, weighed, and measured in a gamma-counter (Cobra II auto-gamma counter, Packard, Minn.). The results were expressed as percentage of the injected dose per gram of tissue (% ID/g). Specificity of brain tumor uptake of B1R radiotracers was determined by pre-administration of 1 mg/kg of R954 peptide (5 min prior the injection of the radiolabelled peptide) and using sham-operated contralaterals. Animals bearing B1R target knockdowns were also employed to further support specificity of brain tumor uptake. Experiments were realized with a minimum of 3 rats per group.

[ ]: non-standard residue; d: D form. The star is where a group is joined. NOTA = O=C(O)CN1CCN(CC(=O)O)CCN(CC(=O)*)CC1; Oic = O=C(O)[C@@H]1C[C@@H]2CCCC[C@@H]2N1; d2Nal = N[C@H](Cc1ccc2ccccc2c1)C(=O)O; αMeF = C[C@](N)(Cc1ccccc1)C(=O)O; Orn = NCCC[C@H](N)C(=O)O; βAla = NCCC(=O)O

With “^64Cu-NOTA-βAla-Orn^1-Arg^2-Oic^3-Pro^4-Gly^5-(αMe)Phe^6-Ser^7-DβNal^8-Ile^9-OH ({NOTA}-[βAla][Orn]R[Oic]PG[αMeF]S[d2Nal]I-OH; also: 64Cu complexed by NOTA)”, the “detection of brain tumors by μPET” value in the series on F98 GBM [1] is reported as “properly detected relatively small brain tumors”. Moreover, the “anticancer activity / therapeutic efficacy” value in the series on cancer cells is “enhanced anticancer activity”. In addition, the in vivo stability entry in series [2] is reported as “no degradation sign”. For the same substance, the “elimination (pharmacokinetics)” value in series [2] (in vivo) is on record as “largely eliminated by the kidneys in urine as intact form”. Besides, the cellular localization result in series [3] was “localize both in cytoplasmic and nuclear compartment”. In the series with F98 GBM [4], the “survival with PRRT” value is listed as “tendency of prolonging survival”. Further, the “brain tumor uptake, ex vivo biodistribution” value with F98 GBM [5] is “significant amount of brain tumor uptake”.
